Measurements as given in US20060069045A1, “Methods for treating familial dysautonomia” (priority 2004, published 2006).

Assays:
Format in all cases: cell-based, human
[1] = test system: IKAP transcript; experiment: RT-PCR with primers in exons 19 and 23, agarose gel, of wild-type and mutant IKAP transcripts; conditions: 24 h, 50 μg/ml EGCG
Description: The effect of EGCG treatment was further monitored by RT-PCR analysis using primers located in exons 19 and 23 capable of amplifying both the normal and mutant forms of the IKAP transcript. 4 μl of cell lysates produced as described above was used in 20 μl RT-PCR using the One Step RT-PCR Kit (Qiagen) with the following primers which recognize sequences in exons 19 and 23 of IKBKAP: 5′-GCAGCAATCATGTGTCCCA-3′ (SEQ ID NO: 1) and 5′-TAGCATCGCAGACAAGGTC-3′ (SEQ ID NO: 2). The RT-PCR was carried out as follows: one cycle of 50° C.×30 min and 95° C.×15 min, followed by 41 cycles of 94° C.×20 s, 60° C.×30 s and 72° C.×15 s, and then a final extension of 72° C.×2 min. PCR products were analyzed on a 2% agarose gel.

[2] = test system: hnRNP A2/B1 transcript; experiment: real-time RT-PCR analysis of hnRNP A2/B1 transcripts in EGCG-treated cells
Source text: (§1) The GM00850 and GM04663 cell lines, homozygous for the IVS20^+6T→C FD-causing mutation, and the GM02912 cell line, derived from an unaffected individual, were obtained from the NIGMS Human Genetic Mutant Cell Repository. LA1-55n cells were provided by Dr. Robert A. Ross. EGCG and δ-tocotrienol were purchased from Calbiochem. A monoclonal antibody generated against a peptide encoded by exons 23-28 of IKBKAP was purchased from BD Biosciences. The 4B10 and DP3B3 monoclonal antibodies, which recognize hnRNP A1 and hnRNP A2/B1, respectively, were provided by Dr. Gideon Dreyfuss.
In order to identify agents that could modulate the level of the wild type IKAP transcript produced in FD-derived cells, either by increasing transcription or modulating splicing, FD-derived fibroblast cells (GM04663) were treated with EGCG. RNA was isolated from GM04663 cells treated for 24 h with varying concentrations of EGCG was subjected to real-time RT-PCR analysis using a pair of primers that recognize both of the hnRNP A2/B1 transcripts. […] The Quantitect SYBR Green RT-PCR Kit (Qiagen) was used for real-time RT-PR analysis of the relative quantities of the exon 20-containing transcript (wild-type), the exon 20-lacking transcript (mutant), and exon 34-35 containing transcript that is unaffected by the FD-causing mutation (total), as well as the hnRNP A2/B1 and hnRNP A1 transcripts. […]

[3] = test system: IKAP transcript; experiment: real-time RT-PCR analysis of IKAP RNA levels (exon 20-containing, exon 20-lacking) in treated cells; conditions: for level of the wild-type of IKAP transcript: GM04663 cells, 24 h, each agent by itself (5 ug/ml EGCG; 6.25 ug/ml δ-tocotrienol)
Description: In order to identify agents that could modulate the level of the wild type IKAP transcript produced in FD-derived cells, either by increasing transcription or modulating splicing, FD-derived fibroblast cells (GM04663) were treated with EGCG. RNA was isolated from GM04663 cells treated for 24 h with varying concentrations of EGCG was subjected to real-time RT-PCR analysis using a pair of primers that recognize both of the hnRNP A2/B1 transcripts. More specifically, FD-derived fibroblast cells, seeded in 96-well plates were treated in triplicate for approximately 24 h unless noted otherwise. After treatment, the cells were washed once with PBS and then lysed in 50 μl Cell-to-cDNA lysis buffer (Ambion) at 75° C. for 12 min. After one freeze-thaw cycle, 4 μl of lysate was used in 20 μl RT-PCR. The Quantitect SYBR Green RT-PCR Kit (Qiagen) was used for real-time RT-PR analysis of the relative quantities of the exon 20-containing transcript (wild-type), the exon 20-lacking transcript (mutant), and exon 34-35 containing transcript that is unaffected by the FD-causing mutation (total), as well as the hnRNP A2/B1 and hnRNP A1 transcripts.
The primers used for these analyses were as follows: for the exon 20-containing transcript, 5′-AGTTGTTCATCATCGAGC-3′ (SEQ ID NO: 3) and 5′-[…]-3′ (SEQ ID NO: 4); for exon 20-lacking transcript, 5′-[…]-3′ (SEQ ID NO: 5) and 5′-[…]-3′ (SEQ ID NO: 6); for exon […] containing transcript, 5′-GAGATCATCCAAGAATCGC-3′ (SEQ ID NO: 7) and 5′-GGTAGCTGAATTCTGCTG-3′ (SEQ ID NO: 8); for hnRNP A2/B1 transcript, 5′-GAGTTGTTTCTCGAGCAG-3′ (SEQ ID NO: 9) and 5′-TGATCTTTTGCTTGCAGG-3′ (SEQ ID NO: 10); and for hnRNP A1 transcript, 5′-[…]-3′ (SEQ ID NO: 11) and 5′-[…]-3′ (SEQ ID NO: 12). Primers were used at a concentration of 0.5 μM. An ABI PRISM 7000 Sequence Detection System (Applied Biosystems), programmed as follows, was used to perform the real-time RT-PCR and analysis: 50° C.×30 min and 95° C.×15 min for one cycle, followed by 40 cycles of 94° C.×15 s, 57-60° C.×30 s, and 72° C.×30 s. To present relative amounts of PCR product obtained, results are expressed as changes in the threshold cycle (ΔCT) compared to untreated cells. The threshold cycle refers to the PCR cycle at which the fluorescence of the PCR is increased to a calculated level above background. A change of 1.0 in CT, assuming 100% PCR efficiency, would reflect a twofold change in the starting amount of the RNA template that was amplified.
To control for the amount of RNA present in the samples, RT-PCR amplification of ribosomal 18S RNA was performed on all cell lysates. […] For this analysis, TaqMan Ribosomal RNA Control Reagents were used with the TaqMan EZ RT-PCR Kit (Applied Biosystems) as per the manufacturer's protocol.
(§2) To determine the effect of EGCG on the cellular level of the exon 20-containing (wild type) IKAP mRNA, FD-derived and normal fibroblasts were treated with 50 μg/ml EGCG for varying lengths of time. The levels of hnRNP A2/B1, hnRNP A1, IKAP exon 20-containing (wild type), IKAP exon 20-lacking (mutant), and IKAP exon 34-35-containing (total) transcripts were determined (FIG. 3).

[4] = test system: hnRNP A1 transcript; experiment: real-time RT-PCR analysis of hnRNP A1 transcript in EGCG-treated cells; conditions: FD-derived and normal fibroblasts, 50 μg/ml EGCG, varying lengths of time
Description: In order to identify agents that could modulate the level of the wild type IKAP transcript produced in FD-derived cells, either by increasing transcription or modulating splicing, FD-derived fibroblast cells (GM04663) were treated with EGCG. RNA was isolated from GM04663 cells treated for 24 h with varying concentrations of EGCG was subjected to real-time RT-PCR analysis using a pair of primers that recognize both of the hnRNP A2/B1 transcripts. More specifically, FD-derived fibroblast cells, seeded in 96-well plates were treated in triplicate for approximately 24 h unless noted otherwise. […] The Quantitect SYBR Green RT-PCR Kit (Qiagen) was used for real-time RT-PR analysis of the relative quantities of the exon 20-containing transcript (wild-type), the exon 20-lacking transcript (mutant), and exon 34-35 containing transcript that is unaffected by the FD-causing mutation (total), as well as the hnRNP A2/B1 and hnRNP A1 transcripts. […]
as §2

[5] = test system: hnRNP A2/B1; experiment: Western blot analysis of hnRNP A2/B1 in EGCG-treated cells; conditions: GM00850 and GM04663 cells, 24 h, 50 μg/ml EGCG
Source text: as §1
(§3) GM00850 and GM04663 cells treated for 24 h with 50 μg/ml of EGCG were washed twice with PBS and lysed in 0.5 M Tris-HCl, pH 6.8, containing 1.4% SDS. Western blot analysis was performed essentially as described by Rubin et al. (Proc. Natl. Acad. Sci. USA 82: 6637-41 (1985)). Equal amounts of protein fractionated on a 7% NuPAGE Tris-Acetate Gel (Invitrogen) were blotted onto nitrocellulose (Bio-Rad) and probed overnight with a monoclonal antibody (BD Biosciences) to IKAP that is directed against the carboxyl end (exons 23-28) of IKAP and therefore recognizes the full-length protein. The blot was then washed and probed with a goat anti-mouse antibody conjugated to alkaline phosphatase (Promega), followed by detection with Western Blue Substrate solution (Promega). […]

[6] = test system: hnRNP A1; experiment: Western blot analysis of hnRNP A1 in EGCG-treated cells; conditions: GM00850 and GM04663 cells, 24 h, 50 μg/ml EGCG
Source text: as §1, §3

[7] = test system: IKAP; experiment: Western blot analysis of full-length IKAP in treated FD-derived cells; conditions: FD-derived GM00850 and GM04663 fibroblasts, 24 h, 50 μg/ml EGCG
Source text: as §1, §3

Compound	exon 20-containing transcript (RT-PCR, exons 19-23, gel) ([1]; FD-derived cells)	exon 20-containing transcript (RT-PCR, exons 19-23, gel) ([1]; normal cells)	level of the hnRNP A2/B1 transcript ([2]; FD-derived GM04663 cells, 24 h, varying concentrations of EGCG)	level of the hnRNP A2/B1 transcript ([2]; FD-derived and normal fibroblasts, 50 μg/ml EGCG, varying lengths of time)	level of the exon 20-lacking transcript ([3]; 50 μg/ml EGCG, varying lengths of time)	exon 20-containing IKAP transcript ([3]; FD-derived cells, 50 μg/ml EGCG, varying lengths of time)	level of the wild-type of IKAP transcript [3]	exon 20-containing IKAP transcript ([3]; normal cells (GM02912), 50 μg/ml EGCG, varying lengths of time)	level of the hnRNP A1 transcript [4]	level of hnRNP A2/B1 (Western blot) [5]	hnRNP A1 levels (Western blot) [6]	amount of IKAP (full-length protein, Western blot) [7]
O=C(O[C@@H]1Cc2c(O)cc(O)cc2O[C@@H]1c1cc(O)c(O)c(O)c1)c1cc(O)c(O)c(O)c1 [EGCG, epigallocatechin gallate]	clear enhanced presence	no effect	clear concentration-dependent decrease	time-dependent reduction	not affected	elevated	did not result in a significant elevation	failed to exhibit an increase	no effect	suppress the level	unaffected	clear increase
CC(C)=CCC/C(C)=C/CC/C(C)=C/CC[C@]1(C)CCc2cc(O)cc(C)c2O1 [8-tocotrienol, δ-tocotrienol, reference compound]	–	–	–	–	–	–	did not result in a significant elevation	–	–	–	–	–
